{
  "source": "paper PMC10470053",
  "about": "“Diverse p120RasGAP interactions with doubly phosphorylated partners EphB4, p190RhoGAP, and Dok1” (The Journal of Biological Chemistry, 2023)",
  "key": {"[1]": {"target": "T1, RasGAP^232 (p120RasGAP N-SH2, SH3, C-SH2, residues 174–444) (Homo sapiens, UniProt P20936, C236S/C261S/C372S/C402S)", "T1 construct": "(residues 174–444, termed RasGAP^232); hexahistidine (TEV-cleavable) (N, cleaved yes); made in house; host or cells: E. coli Rosetta (DE3)", "T1 sequence (P20936 174-444 C236S/C261S/C372S/C402S)": "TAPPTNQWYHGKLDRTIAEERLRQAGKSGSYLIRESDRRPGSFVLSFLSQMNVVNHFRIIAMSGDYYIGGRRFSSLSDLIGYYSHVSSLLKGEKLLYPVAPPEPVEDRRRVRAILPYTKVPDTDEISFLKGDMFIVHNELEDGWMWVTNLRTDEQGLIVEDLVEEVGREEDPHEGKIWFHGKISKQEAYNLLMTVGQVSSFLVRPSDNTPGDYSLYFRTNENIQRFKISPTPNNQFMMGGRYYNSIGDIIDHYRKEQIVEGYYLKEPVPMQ", "experiment": "Isothermal titration calorimetry, WT RasGAP^232 with phosphopeptides", "type": "binding", "protocol": "(§1) We expressed and purified the region of RasGAP encompassing both SH2 domains with a construct that includes the N-SH2, SH3, and C-SH2 domains (residues 174–444, termed RasGAP^232 ([50])) (Figs. 1A and S2A). Separately, we synthesized peptides containing both phosphotyrosine residues for EphB4 and Dok1 (Fig. 1C). Our previous isothermal titration calorimetry (ITC) study assessed the affinity of RasGAP^232 for doubly phosphorylated p190RhoGAP-A peptide and found a Kd of 10 ± 6 nM for tandem engagement of both phosphotyrosines by both SH2 domains ([50]).\nSynthetic peptides were purchased from GenScript and contain N-terminal acetylation and C-terminal amidation for stability. The doubly phosphorylated EphB4 peptide (UniProt ID P54760) used in ITC and SAXS experiments contains residues 586 to 602 (GTKV[pTyr]IDPFT[pTyr]EDPNEA). The singly phosphorylated EphB4 peptides pY590 and pY596 used in ITC experiments contain the residues 586 to 595 (GTKV[pTyr]IDPFT) and residues 592 to 602 (DPFT[pTyr]EDPNE), respectively. The p190RhoGAP peptide (UniProt ID Q9NRY4) used in SAXS experiments contains the residues 1083 to 1111 (SD[pTyr]AEPMDAVVKPRNEEENI[pTyr]SVPH). The Dok1 peptide (UniProt ID Q99704) used in ITC and SAXS experiments contains the residues 291 to 322 (SPPAL[pTyr]AEPLDSLRIAPCPSQDSL[pTyr]SDPLDST). Lyophilized peptides were reconstituted in water, and less soluble peptides (pYpYEphB4 and pY590) were spiked with 20 mM Tris pH 8 or 10 mM NaOH to increase solubility. Concentrations of stock peptides are as follows: pYpY190 stock concentration is 10 mM; pYpYEphB4 stock concentration is 2.5 mM; Dok1 stock concentration is 5.5 mM; pY596 stock concentration is 10 mM; and pY590 stock concentration is 8 mM.\nPurified RasGAP^232 protein and solubilized peptides were dialyzed overnight against buffer containing 20 mM Tris pH 8, 250 mM NaCl in Slide-A-Lyzer 3 ml 10 kDa molecular weight cut off cassettes (Spectra-Por) and Micro Float-A-Lyzer 0.1 to 0.2 ml, 0.1 to […] molecular weight cut off devices (Spectra-Por), respectively. Protein and peptide concentrations were determined by A280 measured on a Nanodrop Lite (Thermo Fisher Scientific) instrument using extinction coefficients of 45,840 M^−1 cm^−1 for RasGAP^232 (and mutants), 917 M^−1 cm^−1 for the doubly phosphorylated EphB4 peptide, and 458.5 M^−1 cm^−1 for the singly phosphorylated EphB4 peptides as determined by ([74]). Dok1 peptide concentration was confirmed using Amino Acid Analysis performed at UC Davis Molecular Structure Facility. Samples were centrifuged for 10 min at 4 °C and degassed for 7 min using a Degassing Station (TA Instruments). ITC experiments were performed on a Nano ITC (TA Instruments) by loading protein into the 190 μl sample cell and titrating 20 times with 2.5 μl peptide in the titration syringe. Concentrations for sample cell and syringe for each trial are included in Table S1. The data were analyzed in NanoAnalyze software (TA Instrument) using blank (constant) and independent models (https://www.tainstruments.com/itcrun-dscrun-nanoanalyze-software/)."}, "[2]": {"target": "T1, RasGAP^232 (p120RasGAP N-SH2, SH3, C-SH2, residues 174–444)", "conditions": "ref ([50]), cited from earlier work", "text": "as §1, with “Table 1 Isothermal titration calorimetry measurements for p120RasGAP with phosphotyrosine-containing binding partners | column: Kd (μM); n; ΔH (kJ/mol); ΔS (J/mol∗K) || We” for “We”, “([50]). In our current study, titration of the dou ...” for “([50]).”"}, "[3]": {"conditions": "ITC, average of trials (Table S1)"}},
  "note": "Values joined by “and” are separate entries in the source; they are usually repeats but may differ in a detail not shown here. Equal values may be shown once. Read-outs that look alike come from different tables or passages of the source. Square brackets hold non-standard residues; d marks the D form. Ends that are not written are not given here. Peptide text beside a SMILES is read from it. pY = N[C@@H](Cc1ccc(OP(=O)(O)O)cc1)C(=O)O",
  "data": [
    {"molecule": "CC[C@H](C)[C@H](NC(=O)[C@H](CCCNC(=N)N)NC(=O)[C@H](CC(C)C)NC(=O)[C@H](CO)NC(=O)[C@H](CC(=O)O)NC(=O)[C@H](CC(C)C)NC(=O)[C@@H]1CCCN1C(=O)[C@H](CCC(=O)O)NC(=O)[C@H](C)NC(=O)[C@H](Cc1ccc(OP(=O)(O)O)cc1)NC(=O)[C@H](CC(C)C)NC(=O)[C@H](C)NC(=O)[C@@H]1CCCN1C(=O)[C@@H]1CCCN1C(=O)[C@H](CO)NC(C)=O)C(=O)N[C@@H](C)C(=O)N1CCC[C@H]1C(=O)N[C@@H](CS)C(=O)N1CCC[C@H]1C(=O)N[C@@H](CO)C(=O)N[C@@H](CCC(N)=O)C(=O)N[C@@H](CC(=O)O)C(=O)N[C@@H](CO)C(=O)N[C@@H](CC(C)C)C(=O)N[C@@H](Cc1ccc(OP(=O)(O)O)cc1)C(=O)N[C@@H](CO)C(=O)N[C@@H](CC(=O)O)C(=O)N1CCC[C@H]1C(=O)N[C@@H](CC(C)C)C(=O)N[C@@H](CC(=O)O)C(=O)N[C@@H](CO)C(=O)N[C@H](C(N)=O)[C@@H](C)O", "note": "[pYpY Dok1] (Ac-SPPAL[pY]AEPLDSLRIAPCPSQDSL[pY]SDPLDST-NH2)", "values": [
      {"measurement": "n", "setting": "[1]; ITC stoichiometry, mean ± SD of trials", "value": "0.8 ± 0.1"},
      {"measurement": "Kd", "setting": "[1]; ITC, 20 mM Tris pH 8, 250 mM NaCl, independent model, mean ± SD of trials (n = 4 EphB4, n = 3 Dok1)", "value": "30 ± 20", "unit": "nM"},
      {"measurement": "-T∆S", "setting": "[1]; [3]", "value": 8.37, "unit": "kcal/mol"},
      {"measurement": "Ka", "setting": "[1]; [3]", "value": 40, "unit": "µM⁻¹"},
      {"measurement": "∆G", "setting": "[1]; [3]", "value": -10.3, "unit": "kcal/mol"},
      {"measurement": "ΔH", "setting": "[1]; ITC, mean ± SD of trials", "value": "-18.6 kcal/mol and -18.6 ± 0.72 kcal/mol"},
      {"measurement": "ΔS", "setting": "[1]; ITC, mean ± SD of trials", "value": "-120 J/mol∗K and −120 ± 14 J/mol∗K"},
      {"measurement": "-T∆S", "setting": "[1]; trial 1, ITC", "value": 7.17, "unit": "kcal/mol"},
      {"measurement": "Ka", "setting": "[1]; trial 1, ITC", "value": 63, "unit": "µM⁻¹"},
      {"measurement": "∆G", "setting": "[1]; trial 1, ITC", "value": -10.5, "unit": "kcal/mol"},
      {"measurement": "∆H", "setting": "[1]; trial 1, ITC", "value": -17.9, "unit": "kcal/mol"},
      {"measurement": "∆S", "setting": "[1]; trial 1, ITC", "value": -102, "unit": "J/mol*K"},
      {"measurement": "-T∆S", "setting": "[1]; trial 2, ITC", "value": 9.32, "unit": "kcal/mol"},
      {"measurement": "Ka", "setting": "[1]; trial 2, ITC", "value": 21, "unit": "µM⁻¹"},
      {"measurement": "∆G", "setting": "[1]; trial 2, ITC", "value": -10, "unit": "kcal/mol"},
      {"measurement": "∆H", "setting": "[1]; trial 2, ITC", "value": -19.4, "unit": "kcal/mol"},
      {"measurement": "∆S", "setting": "[1]; trial 2, ITC", "value": -131, "unit": "J/mol*K"},
      {"measurement": "-T∆S", "setting": "[1]; trial 3, ITC", "value": 8.37, "unit": "kcal/mol"},
      {"measurement": "Ka", "setting": "[1]; trial 3, ITC", "value": 43, "unit": "µM⁻¹"},
      {"measurement": "∆G", "setting": "[1]; trial 3, ITC", "value": -10.5, "unit": "kcal/mol"},
      {"measurement": "∆H", "setting": "[1]; trial 3, ITC", "value": -18.6, "unit": "kcal/mol"},
      {"measurement": "∆S", "setting": "[1]; trial 3, ITC", "value": -116, "unit": "J/mol*K"}
    ]},
    {"molecule": "SD[pY]AEPMDAVVKPRNEEENI[pY]SVPH [pYpY p190RhoGAP-A, Doubly phosphorylated p190RhoGAP-A peptide (pY1087, pY1105)]", "values": [
      {"measurement": "affinity tighter than individual SH2–phosphotyrosine interactions", "setting": "[1]; ITC Kd, compared with individual SH2 interactions (Table 1, ref [60])", "value": "15- to 30 fold"},
      {"measurement": "n", "setting": "[2]; ITC stoichiometry", "value": "0.6 ± 0.1"},
      {"measurement": "Kd", "setting": "[2]; ITC", "value": "10 ± 6", "unit": "nM"},
      {"measurement": "ΔH", "setting": "[2]; ITC", "value": "-31.1 ± 4.78", "unit": "kcal/mol"},
      {"measurement": "ΔS", "setting": "[2]; ITC", "value": "−281 ± 77", "unit": "J/mol∗K"}
    ]}
  ]
}
